# In patent US5084481A, “Method of treating inflammatory diseases with pharmaceutical composition containing dihydrolipoic acid as active substance” (Asta Pharma Aktiengesellschaft, priority 1989, dated 1992):
# “Also recorded” adds a separate entry of the source.
# Experiments:
# [1] = Comparison of the effect with alpha-lipoic acid and S-adenosyl-L-methionine (animal experiments); type: in vivo
# [2] = Acute toxicity in the mouse (LD50, Litchfield and Wilcoxon); details: in vivo, oral application
# Method: The acute toxicity of the invention in the mouse (expressed as the LD50 mg/kg; method of LITCHFIELD and WILCOXON, J. Pharmacol. Exp. Ther. 95:99, (1949)) is for example above 200 mg/kg in the case of oral application.
# [3] = Carragheen-induced edema test in the rat (anti-inflammatory effect); type: in vivo; details: for ED50: read-out: anti-inflammatorally effective ED50, carragheen edema
# Method: Carragheen-edema test for anti-inflammatory effect
# The examination is carried out in carragheen-induced edema of rat paw on the basis of the method of MoRSDORF and colleagues (Arch. int. Pharmacodyn. 192, 111-127 (1971)). The anti-inflammatory effect is for example quoted as edema inhibition in percent as compared to the untreated control group. […]. The substance is given orally or intraperitoneally […]. The ED50 is the dose in mg/kg at which there is a 50% inhibition of the paw edema.
# [4] = Further investigatory models (MgSO4 writhing, adjuvans arthritis, mouse ear edema, arthrosis, intestinal ulceration, colitis, ethanol ulcer, UV-B radiation in healthy subjects); type: in vivo, rat, chicken; details: models listed, stated collectively
# From the text: MgSO4 writhing test in the mouse after GYIRES et al. (Arch. int. pharmacodyn. therap. 267, 131-140, 1984)
# Adjuvans arthritis in the rat after NEWBOULD (Brit. J. Pharmacol. 21, 127-136, 1963)
# TPA or arachidonic acid-induced mouse ear edema after YOUNG et al. (J. Invest. Dermatol. 80, 48-52, 1983)
# Na-mono-iodine acetate-induced arthrosis in rats or chickens after KALBHEN, in: Arthrosis deformans, Eular-Verlag, Basel/Switzerland, 1982
# TPA-induced arthrosis in rats after WEISCHER (Agents and Actions 23, 1/2, 1988)
# Intestinal ulceration in rats after DEL SOLDATO (Agents and Actions 16, 393-396, 1985)
# Colitis model in the rat after WEISCHER (Agents and Actions, 1988)
# Ethanol ulcer model in the rat (determination of, for example, a cytoprotective effect)
# The effect of topical DL-dihydrolipoic acid in the complex of symptoms induced by UV-B radiation in healthy subjects
# [5] = Randall Selitto inflammation pain test in rat; type: in vivo; details: for ED50: 0.5 h, pain threshold 30 minutes after substance, read-out: analgesically effective ED50, Randall Selitto test
# Method: The following is a brief description of the pharmacological test methods specially mentioned herein: Randall Selitto Test (inflammatory pain in the rat):
# On the basis of the method after RANDALL and SELITTO (L.O. Randall and J. Selitto, Arch. int. Pharmacodyn., Vol. 111, pages 409-418 (1957)) 0.1 ml of a 20% suspension of brewer's yeast (in demineralized water) is injected subplantar into the right rear paw of rats. After 21/2 hours the test substances are given and 30 minutes later the pain threshold is measured as a pressure (in grams) on the inflamed paw using an algesimeter (equipment by Ugo BASILE, Milan/Italy). The criterion is the defense reaction of the animals in pulling the paw away and/or escaping from the technician's grip. The effect of the substance is determined by the increase in the pain threshold compared to an untreated control group. The course of the experiment differs from the original method in that the substances are only administered 21/2 hours after appearance of the edema and not given simultaneously therewith. This is done in order to prevent the development of the edema being inhibited by any possible anti-inflammatory action and the analgesia being masked or feigned.
# The ED50 is determined using the linear regression method. The ED50 is then the dose in mg/kg for which a 50% analgesic effect is calculated.
# [6] = PAF-acether edema in the rat; type: in vivo; details: for % effect, PAF-acether edema: rat, given 0.5 hours before triggering, edema measured 1 hour thereafter
# Method: (Platelet Aggregating Factor)-acether-edema in the rat
# The principle of this method is to provoke a locally limited edema or inflammation in the rat paw by means of the subplantar injection of 2 μg of PAF acether per animal. The investigations were carried out on the basis of the method of SWINGLE and REITER (Agents and actions, 18, 358-365, (1986)). The animals received the test substances 0.5 hours before triggering of the edema. The edema was measured 1 hour thereafter. The ED50 was calculated using the linear regression method.
# [7] = Cytoprotective effect in animal trials; details: in vivo
# [8] = Acetic acid writhing pain test in mouse; type: in vivo; details: for ED50: read-out: analgesically effective ED50, acetic acid writhing test
# From the text: Acetic acid test (Writhing test) in the mouse
# In the acetic acid test after KOSTER et al. (Fed. proc., Vol. 18, page 412 (1959)) the pain irritation is triggered by an intraperitoneal injection of 1% acetic acid. The pain reaction is expressed in the form of a characteristic stretching of the animals ("writhing syndrome") which continues at irregular intervals for some time after the acetic acid injection. The dose-related inhibition of the frequency of writhing movements as compared to an untreated control group is expressed as an analgesic effect in percent. Evaluation is effected by determining the ED50 (linear regression method). The ED50 is the dose in mg/kg which achieves a 50% inhibition in the writhing syndrome.
# The characteristic feature of the acetic acid test is that it not only determines the effect of strong, centrally acting analgesics, but also that of predominantly peripherally acting analgesic, antipyretic and anti-inflammatory agents such as phenylbutazone, indomethacin, etc.
# [9] = rats and mice; solutions in water or physiological sodium chloride containing venom and substance; cited from earlier work
compound,measurement,setting,value
"O=C(O)CCCCC(S)CCS (racemic) [dihydrolipoic acid, 6,8-dimercapto-octanoic acid]",time after application at which the full effect appears,[1]; animal experiments,0.5 h
same,effect stronger than that of alpha-lipoic acid by a factor,[1]; in vivo,2-3
same,LD50,[2],> 200 mg/kg
same,anti-inflammatory activity (in words),[3]; carragheen-induced edema in the rat,good anti-inflammatory activity
same,ED50,"[3]; ip, intraperitoneally, rat",7.7 mg/kg
same,anti-inflammatory activity superior to that of alpha-lipoic acid by a factor,"[3]; peroral application, carragheen edema, rat",at least 1.9
same,ED50,"[3]; po, per os, rat",26 mg/kg
same,minimal effective dose,"[3]; po, per os, rat, read-out: minimum dose to produce an anti-inflammatory effect in the carragheen-induced edema test",5 mg/kg
same,"analgesic, anti-inflammatory, anti-arthrotic and cytoprotective effect in further models (in words)",[4],"good analgesic, anti-inflammatory, anti-arthrotic and cytoprotective effect"
same,analgesic effect (in words),[5]; Randall Selitto inflammation pain test in rat,good analgesic effect
same,ED50,"[5]; ip, intraperitoneally, rat",0.14 mg/kg
same,analgesic effect superior to that of alpha-lipoic acid by a factor,"[5]; peroral application, Randall Selitto, rat",≥ 2.8
same,ED50,"[5]; po, per os, rat",16.2 mg/kg
same,minimal effective dose,"[5]; po, per os, rat, read-out: minimum dose to produce an analgesic effect in the Randall Selitto pain test",5 mg/kg
same,"% effect, PAF-acether edema",[6]; 25 mg/kg intraperitoneally,14%
same,"% effect, PAF-acether edema",[6]; 50 mg/kg intraperitoneally,63%
same,"% effect, PAF-acether edema",[6]; 200 mg/kg intraperitoneally,73%
same,inhibition of vasopermeability (in words),[6]; PAF edema in the rat,good inhibition of vasopermeability
same,cytoprotective effect (in words),[7],good cytoprotective effect; also recorded: specific cytoprotective effect
same,analgesic effect (in words),[8]; acetic acid writhing pain test in mouse,good analgesic effect
same,ED50,"[8]; ip, intraperitoneally, mouse",4.6 mg/kg
same,analgesic effect superior to that of alpha-lipoic acid by a factor,"[8]; peroral application, acetic acid writhing, mouse",at least 1.9
same,ED50,"[8]; po, per os, mouse",26.8 mg/kg
same,inactivation of snake venom (in words),[9],inactivates snake venom
